Legend:
[1] = test system: hop (Zatecky poloskory cervenak); assay: Foliar treatment of hop seedlings (Example 1): contents of alpha acid, beta acid, hop oils; dry weight; type: in vivo; conditions: for (Reference) Dry weight / Beta acid (%) / Hop oil myrcene / Hop oil pharnesene / Alpha acid (%) / (Reference) Dry weight, ratio to no treatment / Alpha acid (ratio to no treatment) / Beta acid (ratio to no treatment) / Hop oil myrcene (ratio to no treatment) / Hop oil pharnesene (ratio to no treatment): foliar treatment 5 times; for Alpha acid (%): Zatecky poloskory cervenak; for (Reference) Dry weight, ratio to no treatment / Alpha acid (ratio to no treatment) / Beta acid (ratio to no treatment) / Hop oil myrcene (ratio to no treatment) / Hop oil pharnesene (ratio to no treatment): no treatment = 100
Excerpt: Seedlings of Zatecky poloskory cervenak cultivated by conventional method in Slovakia in 2006 were subjected to foliar treatment at timing shown in Table 1 with an aqueous 5-aminolevulinic acid (ALA) hydrochloride solution shown in Table 2.

[2] = test system: hop (high alpha acid type Marynka species); assay: Foliar treatment of hop seedlings (Example 2): alpha acid content; yield; type: in vivo; conditions: for Alpha acid (%): Marynka; for (Reference) Yield (ratio to no treatment %) / Alpha acid (ratio to no treatment): no treatment = 100
Excerpt: Seedlings of a high alpha acid type Marynka species cultivated by conventional method in Poland in 2006 were subjected to foliar treatment at timing shown in Table 4 with an aqueous ALA hydrochloride solution the same as in Example 1.

[3] = Treatment 1 (basal fertilizer 30% up): 0.05%, 1000 L/ha, 6 times
[4] = Treatment 1: 0.05%, 1000 L/ha, 6 times
[5] = Treatment 2: 0.05%, 1000, 2000, 3000 L/ha at 1st, 3rd, 5th time

NCC(=O)CCC(=O)O [ALA, 5-aminolevulinic acid]
contents of an alpha acid, a beta acid, and hop oils ([1]; ALA treatment versus no treatment, Table 3, in words): remarkably increased
(Reference) Dry weight ([1]; 0.02%, 2500 L/ha): 1.76 t/ha
Beta acid (%) ([1]; 0.02%, 2500 L/ha): 4.62%
Hop oil myrcene ([1]; 0.02%, 2500 L/ha): 51.6
Hop oil pharnesene ([1]; 0.02%, 2500 L/ha): 19.9
Alpha acid (%) ([1]; 0.02%, 2500 L/ha): 3.26%
(Reference) Dry weight, ratio to no treatment ([1]; 0.02%, 2500 L/ha): 125%
Alpha acid (ratio to no treatment) ([1]; 0.02%, 2500 L/ha): 127
Beta acid (ratio to no treatment) ([1]; 0.02%, 2500 L/ha): 105
Hop oil myrcene (ratio to no treatment) ([1]; 0.02%, 2500 L/ha): 149
Hop oil pharnesene (ratio to no treatment) ([1]; 0.02%, 2500 L/ha): 121
(Reference) Dry weight ([1]; 0.1%, 500 L/ha): 1.44 t/ha
Beta acid (%) ([1]; 0.1%, 500 L/ha): 4.95%
Hop oil myrcene ([1]; 0.1%, 500 L/ha): 57.0
Hop oil pharnesene ([1]; 0.1%, 500 L/ha): 17.6
Alpha acid (%) ([1]; 0.1%, 500 L/ha): 3.11%
(Reference) Dry weight, ratio to no treatment ([1]; 0.1%, 500 L/ha): 103%
Alpha acid (ratio to no treatment) ([1]; 0.1%, 500 L/ha): 121
Beta acid (ratio to no treatment) ([1]; 0.1%, 500 L/ha): 113
Hop oil myrcene (ratio to no treatment) ([1]; 0.1%, 500 L/ha): 164
Hop oil pharnesene (ratio to no treatment) ([1]; 0.1%, 500 L/ha): 107
content of an alpha acid ([2]; ALA treatment versus no treatment, Table 5, in words): remarkably increased
(Reference) Yield (kg/ha) [2, 3]: 1610 kg/ha
Alpha acid (%) [2, 3]: 6.98%
(Reference) Yield (ratio to no treatment %) [2, 3]: (104) %
Alpha acid (ratio to no treatment) [2, 3]: (104)
(Reference) Yield (kg/ha) [2, 4]: 1609 kg/ha
Alpha acid (%) [2, 4]: 6.82%
(Reference) Yield (ratio to no treatment %) [2, 4]: (104) %
Alpha acid (ratio to no treatment) [2, 4]: (102)
(Reference) Yield (kg/ha) [2, 5]: 1610 kg/ha
Alpha acid (%) [2, 5]: 6.95%
(Reference) Yield (ratio to no treatment %) [2, 5]: (104) %
Alpha acid (ratio to no treatment) [2, 5]: (104)
